Tests used:
Type in all cases: cell-based
E. coli DH5α = assay: Antibacterial activity: MIC and growth curve against E. coli DH5α in 96-well plate; conditions: minimal inhibitory concentration against E. coli DH5α; 96-well plate, 5×10^5 CFU/mL, 37° C., judged after 8 h
Outline: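 MIC taken as lowest protein level with no bacterial growth, tracked by A600 every 30 min during 37 °C, 175 rpm culture. Two-fold protein series 50-12.5 μg/mL final, triplicate wells, against 5×10^5 CFU/mL of LB-washed mid-log cells.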

Pseudomonas aeruginosa = assay: MIC against Gram-negative bacteria: Pseudomonas aeruginosa; conditions: 5×10^5 CFU/mL
Outline: (§1)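 Inocula prepared by growing LB cultures at 37° C to 0.5 McFarland, centrifuging at 4000×g, and resuspending in fresh medium. Final density 5×10^5 CFU/mL per well with two-fold dilutions of purified EGF domain protein; shaking incubation at 37° C.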

Proteus vulgaris = assay: MIC against Gram-negative bacteria: Proteus vulgaris; conditions: 5×10^5 CFU/mL
Outline: as §1

Enterobacter cloacae = assay: MIC against Gram-negative bacteria: Enterobacter cloacae; conditions: 5×10^5 CFU/mL
Outline: as §1

Moraxella catarrhalis = assay: MIC against Gram-negative bacteria: Moraxella catarrhalis; conditions: 5×10^5 CFU/mL
Outline: as §1

Klebsiella pneumonia = assay: MIC against Gram-negative bacteria: Klebsiella pneumonia; conditions: 5×10^5 CFU/mL
Outline: as §1

E. coli BL21 = assay: MIC against Gram-negative bacteria: E. coli BL21; conditions: 5×10^5 CFU/mL
Outline: as §1

Serratia marcescens = assay: MIC against Gram-negative bacteria: Serratia marcescens; conditions: 5×10^5 CFU/mL
Outline: as §1

Aeromonas hydrophila = assay: MIC against Gram-negative bacteria: Aeromonas hydrophila; conditions: 5×10^5 CFU/mL
Outline: as §1

Proteus mirabilis = assay: MIC against Gram-negative bacteria: Proteus mirabilis; conditions: 5×10^5 CFU/mL
Outline: as §1

Citrobacter diversus = assay: MIC against Gram-negative bacteria: Citrobacter diversus; conditions: 5×10^5 CFU/mL
Outline: as §1

[1] = Pseudomonas aeruginosa, 96-well plate, 37° C., 10 h
[2] = Proteus vulgaris, 96-well plate, 37° C., 10 h
[3] = Enterobacter cloacae, 96-well plate, 37° C., 10 h
[4] = Moraxella catarrhalis, 96-well plate, 37° C., 10 h
[5] = Klebsiella pneumonia, 96-well plate, 37° C., 10 h
[6] = E. coli BL21, 96-well plate, 37° C., 10 h
[7] = Serratia marcescens, 96-well plate, 37° C., 10 h
[8] = Aeromonas hydrophila, 96-well plate, 37° C., 10 h
[9] = Proteus mirabilis, 96-well plate, 37° C., 10 h
[10] = Citrobacter diversus, 96-well plate, 37° C., 10 h
[11] = Pseudomonas aeruginosa, 10 h cultivation at 37° C.
[12] = Proteus vulgaris, 10 h cultivation at 37° C.
[13] = Enterobacter cloacae, 10 h cultivation at 37° C.
[14] = Moraxella catarrhalis, 10 h cultivation at 37° C.
[15] = Klebsiella pneumonia, 10 h cultivation at 37° C.
[16] = E. coli BL21, 10 h cultivation at 37° C.
[17] = Serratia marcescens, 10 h cultivation at 37° C.
[18] = Aeromonas hydrophila, 10 h cultivation at 37° C.
[19] = Proteus mirabilis, 10 h cultivation at 37° C.
[20] = Citrobacter diversus, 10 h cultivation at 37° C.

PRT1332 (FGPSCSSVCNCVHGVCNSGLDGDGTCECYSAYTGPKCD; listed as Homo sapiens)
12.5 µg/mL: MIC against P. vulgaris (Proteus vulgaris; [2]) | MIC against E. cloacae (Enterobacter cloacae; [3]) | MIC against M. catarrhalis (Moraxella catarrhalis; [4]) | MIC against E. coli BL21 (E. coli BL21; [6])
50 µg/mL: MIC (E. coli DH5α) | MIC against P. aeruginosa (Pseudomonas aeruginosa; [1]) | MIC against A. hydrophila (Aeromonas hydrophila; [8])
25 µg/mL: MIC against K. pneumonia (Klebsiella pneumonia; [5]) | MIC against S. marcescens (Serratia marcescens; [7]) | MIC against P. mirabilis (Proteus mirabilis; [9]) | MIC against C. diversus (Citrobacter diversus; [10])

PRT19 (CSCDPQGAVRDDCEQMTGLCSCKPGVAGPKCGQCPDGRALGPAGCEA; listed as Homo sapiens)
25 µg/mL: MIC (E. coli DH5α) | MIC (μg/mL) P. vulgaris (Proteus vulgaris; [2]) | MIC (μg/mL) K. pneumonia (Klebsiella pneumonia; [5]) | MIC (μg/mL) C. diversus (Citrobacter diversus; [10])
12.5 µg/mL: MIC (μg/mL) P. aeruginosa (Pseudomonas aeruginosa; [1]) | MIC (μg/mL) E. coli BL21 (E. coli BL21; [6]) | MIC (μg/mL) A. hydrophila (Aeromonas hydrophila; [8]) | MIC (μg/mL) P. mirabilis (Proteus mirabilis; [9])
50 µg/mL: MIC (μg/mL) E. cloacae (Enterobacter cloacae; [3]) | MIC (μg/mL) M. catarrhalis (Moraxella catarrhalis; [4]) | MIC (μg/mL) S. marcescens (Serratia marcescens; [7])

PRT103 (CSSYGKLCRNGGKCRERPIGFFCDCTFSAYTGPFC; listed as Homo sapiens)
12.5 µg/mL: MIC (μg/mL) P. vulgaris (Proteus vulgaris; [2]) | MIC (μg/mL) E. cloacae (Enterobacter cloacae; [3]) | MIC (μg/mL) M. catarrhalis (Moraxella catarrhalis; [4]) | MIC (μg/mL) K. pneumonia (Klebsiella pneumonia; [5]) | MIC (μg/mL) E. coli BL21 (E. coli BL21; [6]) | MIC (μg/mL) A. hydrophila (Aeromonas hydrophila; [8]) | MIC (μg/mL) C. diversus (Citrobacter diversus; [10])
25 µg/mL: MIC (μg/mL) S. marcescens (Serratia marcescens; [7]) | MIC (μg/mL) P. mirabilis (Proteus mirabilis; [9])
50 µg/mL: MIC (E. coli DH5α) | MIC (μg/mL) P. aeruginosa (Pseudomonas aeruginosa; [1])

PRT1433 (PPRRCDSNPCFRGVQCTDSRDGFQCGPCPEGYTGNGITCI; listed as Homo sapiens)
25 µg/mL: MIC against A. hydrophila (Aeromonas hydrophila; [18]) | MIC against P. mirabilis (Proteus mirabilis; [19])
12.5 µg/mL: MIC (E. coli DH5α) | MIC against P. aeruginosa (Pseudomonas aeruginosa; [11]) | MIC against P. vulgaris (Proteus vulgaris; [12]) | MIC against E. cloacae (Enterobacter cloacae; [13]) | MIC against M. catarrhalis (Moraxella catarrhalis; [14]) | MIC against K. pneumonia (Klebsiella pneumonia; [15]) | MIC against E. coli BL21 (E. coli BL21; [16]) | MIC against S. marcescens (Serratia marcescens; [17]) | MIC against C. diversus (Citrobacter diversus; [20])

PRT1453 (DVDECAEPGLSHCHALATCVNVVGSYLCVCPAGYRGDGWHCE; listed as Homo sapiens)
12.5 µg/mL: MIC against E. coli BL21 (E. coli BL21; [16]) | MIC against S. marcescens (Serratia marcescens; [17]) | MIC against A. hydrophila (Aeromonas hydrophila; [18]) | MIC against P. mirabilis (Proteus mirabilis; [19])
50 µg/mL: MIC against M. catarrhalis (Moraxella catarrhalis; [14]) | MIC against K. pneumonia (Klebsiella pneumonia; [15])
25 µg/mL: MIC (E. coli DH5α) | MIC against P. aeruginosa (Pseudomonas aeruginosa; [11]) | MIC against P. vulgaris (Proteus vulgaris; [12]) | MIC against E. cloacae (Enterobacter cloacae; [13]) | MIC against C. diversus (Citrobacter diversus; [20])

PRT478 (ATQYCSRAQCHGHGRCVRRNPSASTFLHLSTNSFRLVPGHAPGEPQLRPVGELSWADIDH; listed as Homo sapiens)
12.5 µg/mL: MIC against P. aeruginosa (Pseudomonas aeruginosa; 96-well plate, 37° C., 10 h) | MIC against S. marcescens (Serratia marcescens; 96-well plate, 37° C., 10 h)
100 µg/mL: MIC against C. diversus (Citrobacter diversus; 96-well plate, 37° C., 10 h)
25 µg/mL: MIC against P. vulgaris (Proteus vulgaris; 96-well plate, 37° C., 10 h) | MIC against M. catarrhalis (Moraxella catarrhalis; 96-well plate, 37° C., 10 h) | MIC against K. pneumonia (Klebsiella pneumonia; 96-well plate, 37° C., 10 h) | MIC against E. coli BL21 (E. coli BL21; 96-well plate, 37° C., 10 h) | MIC against A. hydrophila (Aeromonas hydrophila; 96-well plate, 37° C., 10 h)
50 µg/mL: MIC (E. coli DH5α) | MIC against E. cloacae (Enterobacter cloacae; 96-well plate, 37° C., 10 h) | MIC against P. mirabilis (Proteus mirabilis; 96-well plate, 37° C., 10 h)

PRT509 (CNCSTVGSLDFQCNVNTGQCNCHPKFSGAKCTECSRGHWNYPRCNL; listed as Homo sapiens)
25 µg/mL: MIC against K. pneumonia (Klebsiella pneumonia; 96-well plate, 37° C., 10 h) | MIC against E. coli BL21 (E. coli BL21; 96-well plate, 37° C., 10 h) | MIC against S. marcescens (Serratia marcescens; 96-well plate, 37° C., 10 h)
12.5 µg/mL: MIC (E. coli DH5α) | MIC against P. aeruginosa (Pseudomonas aeruginosa; 96-well plate, 37° C., 10 h) | MIC against P. vulgaris (Proteus vulgaris; 96-well plate, 37° C., 10 h) | MIC against E. cloacae (Enterobacter cloacae; 96-well plate, 37° C., 10 h) | MIC against M. catarrhalis (Moraxella catarrhalis; 96-well plate, 37° C., 10 h) | MIC against A. hydrophila (Aeromonas hydrophila; 96-well plate, 37° C., 10 h) | MIC against P. mirabilis (Proteus mirabilis; 96-well plate, 37° C., 10 h) | MIC against C. diversus (Citrobacter diversus; 96-well plate, 37° C., 10 h)

Reference: patent US9833497B2, “Human originated EGF domain proteins and use of the same” (CHENGDU SOURCEBIO LIMITED-LIABILITY COMPANY, priority 2013, dated 2017)
